The values that follow come from US20180136197A1, “CELL-FREE METHODS OF DETECTING BIOACTIVE LIGANDS” (Brigham Young University, priority 2016, published 2018).

For this data set, the system named is E. coli-based CFPS of GFP. The data set can be described thus: Cell-free protein synthesis (CFPS) of model protein GFP in presence of additives. The class given is biochemical. The protocol:
CFPS reactions took place in a 96-well plate at 37° C. for 2 hours. PANOxSP was used as an energy source (25% reaction volume of the cell extract, 1.2 nM plasmid, 12 to 15 mM magnesium glutamate, 1 mM 1,4-diaminobutane, 1.5 mM Spermidine, 33.3 mM phosphoenolpyruvate, 10 mM ammonium glutamate, 175 mM potassium glutamate, 2.7 mM potassium oxalate, 0.33 mM nicotinamide adenine dinucleotide, 0.27 mM coenzyme A, 1.2 mM ATP, 0.86 mM CTP, 0.86 mM GTP, 0.86 mM UTP, 0.17 mM folinic acid, 2 mM of all canonical amino acids with the exception of glutamic acid^81. Expressed protein was quantified by addition of 5 μM radiolabeled (U-14C) leucine (PerkinElmer, Waltham, Mass.) to the CFPS reaction. Varying concentrations (0 to 200 μM) of ligands were added to the CFPS reaction. In case of human sample testing, 20% and 10% of whole blood and urine (v/v), respectively were added to the CFPS in addition to the EDC ligands.
Initially, we hypothesized that urea is the main component to hinder protein synthesis in urine samples. The urea concentration in human samples is in a range of 0.1 to 0.8 M^88-89 with the average being 0.22 M^90. To understand the effect of urea on CFPS, we synthesized the model protein GFP in the presence of urea at concentrations between 0.001 to 1 M (FIG. 23). […] Error bars represent one standard deviation for n=3. […] Even reactions with 0.5 M urea retained 40% protein synthesis capability.
We next hypothesized that RNase activity hinders protein synthesis in both urine and blood samples^91,92,93. To test this hypothesis, we performed CFPS of GFP in the presence of urine and blood, and added murine RNase inhibitor as shown in FIGS. 24A and 24B. FIGS. 24A and 24B show the effect of RNase inhibitor on CFPS of GFP in the presence of urine (top) and blood (bottom). The lighter bars in both graphs represent the improvements in protein production in the presence of urine or blood with the addition of RNase inhibitor. The error bars represent one standard deviation for n=3. […] For instance, for 20% by volume urine sample, the GFP production yield increased from less than 10% to more than 30%. The improvement was more significant for blood samples, as 10% by volume blood eliminated protein synthesis, but even 45% by volume blood in CFPS containing RNase inhibitor retained 50% protein synthesis yield. […] Adding RNase inhibitors to CFPS reactions facilitates synthesis of sufficient biosensor protein to detect ligands in up to 25% and 45% by volume urine and blood, respectively. These higher volume percentages help to detect lower concentrations of ligands in the samples.

For `NC(N)=O` [urea], under “0.1 M urea”, the “effect on CFPS performance” value is “doesn't have a significant effect”. Also, the “retained protein synthesis capability” value (0.5 M urea) was found to be 40%.

B1: RNase inhibitor: murine RNAse inhibitor purchased from New England Biolabs, added to CFPS reactions (protein, UniProt Q91VI7 1-456, looked up)
Ribonuclease inhibitor: MSLDIQCEQLSDARWTELLPLIQQYEVVRLDDCGLTEVRCKDISSAVQANPALTELSLRTNELGDGGVGLVLQGLQNPTCKIQKLSLQNCGLTEAGCGILPGMLRSLSTLRELHLNDNPMGDAGLKLLCEGLQDPQCRLEKLQLEYCNLTATSCEPLASVLRVKADFKELVLSNNDLHEPGVRILCQGLKDSACQLESLKLENCGITAANCKDLCDVVASKASLQELDLSSNKLGNAGIAALCPGLLLPSCKLRTLWLWECDITAEGCKDLCRVLRAKQSLKELSLASNELKDEGARLLCESLLEPGCQLESLWIKTCSLTAASCPYFCSVLTKSRSLLELQMSSNPLGDEGVQELCKALSQPDTVLRELWLGDCDVTNSGCSSLANVLLANRSLRELDLSNNCMGGPGVLQLLESLKQPSCTLQQLVLYDIYWTNEVEEQLRALEEERPSLRIIS
In the case of B1, the GFP production yield result (20% by volume urine, with RNase inhibitor (less than 10% without)) was “more than 30%”. Moreover, under “45% by volume blood, with RNase inhibitor”, the “retained protein synthesis yield” value was determined as 50%.
